Each block holds one compound with its values, some of them ahead of it.
Experiments:
4T1 xenograft tumor = test: Mouse 4T1 xenograft model; conditions: 100 mg/kg intraperitoneally twice per week
Description: In this model, 5×10^5 cells 4T1 cells in PBS were injected into the Balb/C mice mammary fat pad. When tumors were palpable, tumor growth was measured for 3 weeks and calculated as 0.52xLXWxW (L=Length, W=Width). […] The mice were sacrificed at the end of treatment, and the xenograft tumor was collected, formalin fixed, paraffin embedded, sectioned. Immunohistochemistry (IHC) was conducted with xenograft tumor and liver tissues to detect Cdc20, Ki67, Activate and Caspase-3.

cyclin B1 = test: Cyclin B1 level by Western blotting in MDA-MB-231 cells; type: cell-based; conditions: indicated dose, 10 hours
Description: […]. Cdc20 and cyclin-B levels were then determined by Western blotting.
(§1) Given that Cdc20-APC/C regulates mitotic progression through proteolysis of securin and cyclin B1, CP5V-mediated degradation of Cdc20 was examined for resultant changes of the protein level of securin and cyclin B1. […]. […]

MDA-MB-231 cells [1] = test: Cell cycle analysis by flow cytometry in MDA-MB-231 cells; type: cell-based; conditions: for mitotic arrest: double-thymidine synchronized
Description: . In this example, cell cycle analysis of MDA-MB-231 cells was performed after CP5V treatment. The MDA-MB-231 cells were initially synchronized by double-thymidine followed by treatment with CP5V for 16 hours. Cell cycle profile was then measured by flow cytometry.
(§2) Flow cytometry analysis. MDA-MB-231 and MDA-MB-435 cells were plated in a 6-cm dish and double-synchronized for 18 h and then 15 h with a 9-hour release with fresh medium between them. The cells were released and treated with DMSO, Apcin and CP5V at indicated concentrations for 24 h. After treatment, the cells were collected and stained with propidium iodide (PI) staining buffer and analyzed by flow cytometry.
as §1

MDA-MB-231 cells [2] = test: Cell proliferation CCK8 assay in MDA-MB-231 cells; type: cell-based; conditions: Homo sapiens, 72 h, read-out: IC50 of cell growth inhibition
Text: (§3) Cell proliferation assays.

MDA-MB-435 cells [3] = test: Cell cycle analysis by flow cytometry in MDA-MB-435 cells; type: cell-based; conditions: for mitotic arrest: synchronized
Description: as §2, §1

MCF7 cells = test: Clonogenic assay in MCF7 cells; conditions: 1 μM for 24 hours, then culture 2 weeks
Description: Data are presented as the mean±standard error of the mean (S.E.) of three independent samples (**p<0.01).

Cdc27 = Cdc27 protein level by Western blot in MDA-MB-231 cells (specificity); type: cell-based; conditions: indicated dosages, 10 hours
Description: (§4) MDA-MB-231 cells treated with CP5V at indicated dosages for 10 hours were harvested for Western Blot.
To test the specificity for CP5V in targeting Cdc20, the dosage experiment based on MDA-MB-231 cells was repeated and the alteration of protein levels for Cdc20 and Cdc27, another core subunit of anaphase-promoting complex, was measured.

[4] = test system: Tamoxifen-resistant breast cancer cells; test: Endocrine response of Tamoxifen-resistant breast cancer cells; type: cell-based
HIF1α = HIF1α accumulation by Western blot in MDA-MB-231 cells; type: cell-based; conditions: 10 hours; for HIF1α level: indicated dosages
Description: as §4
MDA-MB-231 cells treated with VHL Ligand 1 at indicated dosages for 10 hours and collected for WB.
Relatively high potential dosage of VHL ligand 1 (VHL1), the VHL-binding moiety offered by CP5V, causes concern if it affects HIF1α, the substrate of VHL.

MDA-MB-435 eb cells [5] = test: cells; conditions: Homo sapiens, MDA-MB-435, read-out: growth inhibition
MDA-MB-435 cells [6] = test: Cell proliferation CCK8 assay in MDA-MB-435 cells; type: cell-based; conditions: Homo sapiens, 72 h, read-out: IC50 of cell growth inhibition
Text: as §3

LNCaP cells = test: Cell survival CCK8 assay in LNCaP cells; conditions: 72 hours
Description: (§5) The test was performed in triplicate (n=3). Data are mean±SEM.

22Rv1 cells = test: Cell survival CCK8 assay in 22Rv1 cells; conditions: 72 hours
Description: as §5

U2OS cells = test: Cell survival CCK8 assay in U2OS cells; conditions: 72 hours
Description: as §5

MDA-MB-435 eb cells [7] = test system: MDA-MB-435 eb cells
Cdc20 mRNA = test: Cdc20 RNA level by qRT-PCR in MDA-MB-231 cells; type: cell-based; conditions: indicated dosages, 10 hours
Description: MDA-MB-231 cells treated with CP5V at indicated dosages for 10 hours were harvested for RNA extraction, reverse-transcription, and further qRT-PCR.
To further confirm the conclusion that the CP5V-medicated degradation is depending on the ubiquitin-proteasome system, RT-PCR was conducted to measure the alteration of Cdc20 RNA levels in response to CP5V treatment.

Cdc20 [8] = molecular target: T1, Cdc20 (Homo sapiens, UniProt Q12834); test: Cdc20 degradation by Western blotting in MDA-MB-231 cells; conditions: MLN4924 5 μM with CP5V, 10 hours
T1 sequence (Q12834 whole entry): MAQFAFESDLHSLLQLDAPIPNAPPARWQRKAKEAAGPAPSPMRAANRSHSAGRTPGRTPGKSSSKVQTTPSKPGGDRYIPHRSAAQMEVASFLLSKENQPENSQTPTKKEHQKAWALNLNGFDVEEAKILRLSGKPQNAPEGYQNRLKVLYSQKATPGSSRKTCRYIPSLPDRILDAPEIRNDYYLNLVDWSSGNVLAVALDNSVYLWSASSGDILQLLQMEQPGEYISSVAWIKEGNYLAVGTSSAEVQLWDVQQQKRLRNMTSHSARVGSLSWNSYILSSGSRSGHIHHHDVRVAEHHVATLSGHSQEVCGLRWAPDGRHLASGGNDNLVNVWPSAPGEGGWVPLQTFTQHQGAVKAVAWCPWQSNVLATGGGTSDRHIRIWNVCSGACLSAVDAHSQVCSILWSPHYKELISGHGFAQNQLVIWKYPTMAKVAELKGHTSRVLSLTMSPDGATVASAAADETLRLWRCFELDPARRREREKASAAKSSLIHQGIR
Description: (§6) MCF-7, MDA-MB-231 cells were cultured in DMEM medium supplemented with 10% fetal bovine serum (FBS) and 1% penicillin-streptomycin. Flag-Cdc20 MDA-MB-231 cells were cultured in complete DMEM media introduced before with 1 μg/ml Tamoxifen. The Cdc20, cyclin-B and actin antibodies were purchased from Sigma. The actin antibodies were diluted 1:5000. The Cdc20, Cyclin-B and ubiquitin antibodies were diluted 1:1000. The agarose beads were purchased from Cell Signaling Technology.
(§7) The lysates were analyzed by SDS/PAGE. Western blotting was performed by transferring samples onto a nitrocellulose membrane, incubating in 5% milk in TBST (Tris-buffered Saline with Tween 20) at room temperature for 1 h and probing with indicated antibody overnight at 4° C. Membranes were visualized using the ECL prime western blotting detection reagent (GE Healthcare, RPN2232).
(§8) The time course for CP5V-induced Cdc20 degradation was also measured in both cell lines.

Cdc20 [9] = molecular target: T1, Cdc20; test: Cdc20 ubiquitylation (immunoprecipitation, anti-ubiquitin immunoblot) in MDA-MB-231 cells; conditions: 2 μM, with MG-132
Description: Cdc20 were immunoprecipitated by antibody against Cdc20 followed by immunoblotting using anti-ubiquitin antibody.
Beads were then boiled for 5 min and analyzed by SDS/PAGE. Western blotting was performed according to standard protocols.
To confirm the CP5V-induced degradation of Cdc20 is mediated through the ubiquitin-proteasome pathway, the Cdc20 ubiquitylation in the absence and presence of CP5V as well as Apcin-A was measured.

Cdc20 [10] = molecular target: T1, Cdc20; test: Cdc20 degradation by Western blotting in MCF-7 cells; conditions: various dosages
Description: as §6, §7, §8

SMILES: Cc1ncsc1-c1ccc(CNC(=O)[C@@H]2C[C@@H](O)CN2C(=O)[C@H](NC(=O)CCOCCOCCOCCOCCOCCC(=O)NCCCOC(=O)NC(Nc2ncccn2)C(Cl)(Cl)Cl)C(C)(C)C)cc1 (stereo partly drawn) [CP5V, (R)-25-((2S,4R)-4-hydroxy-2-((4-(4-methylthiazol-5-yl)benzyl)carbamoyl)pyrrolidine-1-carbonyl)-26,26-dimethyl-5,23-dioxo-8,11,14,17,20-pentaoxa-4,24-diazaheptacosyl (2,2,2-trichloro-1-(pyrimidin-2-ylamino)ethyl)carbamate]
- Cdc20 expression in the xenograft tumor (IHC) (4T1 xenograft tumor): decreased Cdc20 expression
- Ki67 index in the tumor (IHC) (4T1 xenograft tumor): decreasing the Ki67 index
- effect on mice body weight (4T1 xenograft tumor): no significant effect
- expression of caspase-3 in the tumor (IHC) (4T1 xenograft tumor): did not change dramatically
- liver toxicity (4T1 xenograft tumor): no significant effect
- reduction of the size of the xenograft tumor compared to placebo (4T1 xenograft tumor; Balb/C mice): approximately 70%
- reduction of the weight of the xenograft tumor compared to placebo (4T1 xenograft tumor; Balb/C mice): approximately 70%
- cyclin B1 level (cyclin B1): largely accumulated
- cells arrested in the G2/M phase (MDA-MB-231 cells [1]; 2 μM): over 40%
- fraction of cells in the G0/G1 phase (MDA-MB-231 cells [1]; 2 μM, versus control cells): much lower compared to control cells
- mitotic arrest (MDA-MB-231 cells [1]): induces mitotic arrest
- IC50 (MDA-MB-231 cells [2]): 2600 nM
- cells arrested in the G2/M phase (MDA-MB-435 cells [3]; 2 μM): > 50%
- fraction of cells in the G0/G1 phase (MDA-MB-435 cells [3]; 2 μM, versus control cells): much lower compared to control cells
- mitotic arrest (MDA-MB-435 cells [3]): induces mitotic arrest
- colony formation (killing of breast cancer cells) (MCF7 cells): potent efficacy in killing breast cancer cells
- Cdc27 protein level (Cdc27): no Cdc27 protein level change
- re-sensitization to Tamoxifen [4]: re-sensitizes Tamoxifen-resistant breast cancer cells to Tamoxifen treatment
- HIF1α level (HIF1α): no obvious alteration of HIF1α
- inhibition at 5 µM (MDA-MB-435 eb cells [5]): > 50%
- IC50 (MDA-MB-435 cells [6]): 1990 nM
- inhibition of cell growth (LNCaP cells): significant inhibition of cell growth
- inhibition of cell growth (22Rv1 cells): significant inhibition of cell growth
- inhibition of cell growth (U2OS cells): significant inhibition of cell growth
- Taxol-cytotoxic response of Taxol-resistant cells (MDA-MB-435 eb cells [7]; with 5 nM paclitaxel): significantly restored their Taxol-cytotoxic response
- Cdc20 mRNA level (Cdc20 mRNA): no significant change

SMILES: CC(=O)O[C@H]1C(=O)[C@@]2(C)[C@H]([C@H](OC(=O)c3ccccc3)[C@]3(O)C[C@H](OC(=O)[C@H](O)[C@@H](NC(=O)c4ccccc4)c4ccccc4)C(C)=C1C3(C)C)[C@]1(OC(C)=O)CO[C@@H]1C[C@@H]2O [paclitaxel, reference compound]
- inhibition at 0.005 µM (MDA-MB-435 eb cells [5]): < 10%
- cells survived (MDA-MB-435 eb cells [7]; 5 nM paclitaxel alone): about 92%

SMILES: NS(=O)(=O)OC[C@@H]1C[C@@H](n2ccc3c(N[C@H]4CCc5ccccc54)ncnc32)C[C@@H]1O [MLN4924]
- effect on CP5V-mediated Cdc20 degradation (Cdc20 [8]): inhibited the degradation of Cdc20 caused by CP5V

- Cdc20 ubiquitylation (Cdc20 [9]): no obvious effect
- Cdc20 protein level (degradation) (Cdc20 [10]): no degradation of Cdc20
SMILES: NCCCOC(=O)NC(Nc1ncccn1)C(Cl)(Cl)Cl (centres unmarked) [Apcin-A, 3-aminopropyl (2,2,2-trichloro-1-(pyrimidin-2-ylamino)ethyl)carbamate]

SMILES: Cc1ncc([N+](=O)[O-])n1CCOC(=O)NC(Nc1ncccn1)C(Cl)(Cl)Cl (centres unmarked) [Apcin]
- mitotic arrest (MDA-MB-231 cells [1]): no effect
- mitotic arrest (MDA-MB-435 cells [3]): no effect

SMILES: Cc1ncsc1-c1ccc(CNC(=O)[C@@H]2C[C@@H](O)CN2C(=O)[C@@H](N)C(C)(C)C)cc1 [VHL ligand 1]
- concentration that induced HIF-α accumulation (HIF1α): ≥ 1 µM
- HIF1α level (HIF1α): significant HIF1α is accumulated

From US12414995B2, “Bifunctional compounds comprising Apcin-A and their use in the treatment of cancer” (Northwestern University, priority 2019, dated 2025)
